Here are results for 1 molecule from patent US12187755B2, “Minimal saponin analogues, synthesis and use thereof” (MEMORIAL SLOAN-KETTERING CANCER CENTER, priority 2014, dated 2025).

Each structure is given as a SMILES string.

The conditions of test [1]: in vivo; cited from earlier work.
Test [2] can be described thus: in vivo fluorescence imaging with fluorescein-labeled saponin and OVA-A647. Also on record: species or system mouse. The conditions noted are these: 24 h post-injection. How it is done:
To address this problem, in vivo fluorescence imaging experiments with fluorescein-labeled active adjuvant 3 (SQS-0-0-5-12) and Alexa-647-conjugated OVA (OVA-A647) were conducted.
Whole-body imaging was performed at 24 h post-injection with a Maestro Imaging System. At 24 h post-injection, mice were sacrificed and the left and right lymph nodes were dissected and imaged separately.

`C[C@H]1O[C@@H](OC2C(O)C(NC(=O)CCCCCN)[C@H](CO)O[C@H]2OC(=O)C23CCC(C)(C)CC2C2=CCC4C5(C)CC[C@H](OC6OC(C(=O)O)[C@@H](O)[C@H](OC7OC[C@@H](O)[C@H](O)[C@@H]7O)[C@@H]6O[C@@H]6OC(CO)C(O)[C@@H](O)[C@@H]6O)[C@](C)(C=O)[C@@H]5CC[C@]4(C)[C@]2(C)C[C@@H]3O)C(O)C(O)C1O[C@@H]1OCC(O)C(O)C1O` (stereo partly drawn) [compound 2]: the adjuvant activity result in test [1] was “inactive”. The “OVA-A647 at the site of injection when co-injected with the adjuvant” value in test [2] was “observed at the site of injection”. For the same molecule, the “OVA-A647 localization to the nearest draining lymph nodes when co-injected with the adjuvant” value in test [2] (dissected lymph nodes) is “increased accumulation of OVA-A647 with 3 but not 2”.
